The values below come from US20110183978A1, “Phenylpyri(mi)dinylazoles” (Bayer CropScience AG, priority 2009, published 2011).

In one assay the test system is Puccinia recondita. Briefly: Example F: in vivo test on Puccinia recondita (wheat brown rust). Particulars: 240 h, wheat plants sprayed 24 hours before inoculation, scored after 10 days, read-out: % Wirkungsgrad. As to the method:
In Vivo Test on Puccinia Recondita (Wheat Brown Rust) An aqueous suspension of the active substance was prepared by homogenization of a mixture of acetone/Tween/dimethyl sulphoxide and subsequent dilution with water to the desired concentration. Wheat plants (variety: Scipion) are sown in cultivation dishes on a peat-pozzolanic earth substrate (50/50) at 12° C. and sprayed at the first-leaf stage (10 cm size) with the aqueous suspension described above. As a control, plants are sprayed with an aqueous solution with no active substance. After 24 hours the plants are inoculated by spraying with an aqueous suspension of Puccinia recondita spores (100,000 spores per ml). The spores are derived from a 10 day-old infected wheat crop and are suspended in water with 2.5 ml/l Tween. […] After 10 days they are scored in comparison with the control plants.

For a further assay, the system named is Alternaria solani. Briefly: Example M: in vivo test on Alternaria solani (leaf blotch disease/tomato/protective). Particulars: 168 h, tomato, protective, 500 ppm active substance, assessed 7 days after inoculation, read-out: % Wirkungsgrad (activity level). The method, boiled down: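 Protective test: young tomato plants sprayed with active substance (in DMF with alkylaryl polyglycol ether emulsifier, diluted in water) at the stated dosage, then inoculated with Alternaria solani. Disease assessed 7 days after inoculation.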

The subject of the next assay is Pyricularia grisea. Type of assay: in vivo. The following applies: 500 ppm; rice plants sprayed 24 hours before inoculation; scored after 6 days.

For `CC(C)C(=O)Nc1cc(-c2cn(C(C)C)nc2-c2ccc(F)cc2)ccn1` [Compound 84], the values for the pest or weed control at 500 ppm in the assay with Puccinia recondita and in the assay with Alternaria solani were 78% and 95%, respectively.
In the case of `CC(C)Cn1cc(-c2ccncc2)c(-c2ccc(F)cc2)n1` [Compound 1], the pest or weed control at 500 ppm with Puccinia recondita was determined as 89%. Moreover, the “% Activity level” value in the assay on Pyricularia grisea is on record as 82%.
For `CCC(=O)Nc1cc(-c2cn(C(C)C)nc2-c2ccc(F)cc2)ccn1` [Compound 85], in the assay on Alternaria solani, the pest or weed control at 500 ppm worked out at 100%.
